# Read-outs that look alike come from different tables or passages of the source.
# Assays:
# H9c2 cell (Cacnalc−/−) = assay: LDH in culture medium under hypoxia/reoxygenation, H9c2 (Cacnalc−/−) cells; format: cell-based; conditions: 1 × 10^−6 mol/L
# Procedure: (§1) Myocardiocytes H9c2 cell and the one which the L-type calcium channel gene was knock-out, the […]-/-) were incubated separately in culture plates. When cell confluence reached 85%, the cells were incubated for another 12 hours in DMEM medium with 0.5% FBS. Then cells were randomly divided into 6 groups, namely the control group, H/R group, DMSO group, H/R+X1(1 × 10^-6 mol/L) group, H/R+X2 (1 × 10^-6 mol/L) group and H/R+X3 (1 × 10^-6 mol/L) group. The hypoxic DMEM culture medium and reoxygenation medium were used in H/R process. The final volume was 500 uL. The compounds (X1, X2, X3) were administered continuously during the hypoxia/reoxygenation process. Finally, cell supernatant was collected and LDH was measured by colorimetric method according to the Kit instruction by manufacturer (Nanjin Jiancheng Lit. China).
# [1] = test system: isolated rat thoracic aortic rings; assay: Vasodilation on KCl (60 mM)-contracted isolated rat thoracic aortic rings; conditions: KCl (60 mM)-induced contraction of rat aortic rings; 0.1 to 10 μM
# Procedure: The vasodilation activity of compounds was evaluated in isolated rat thoracic aortic rings according to the methods of Greenwood and Polster et al. The aortic rings were allowed to equilibrate in Krebs bicarbonate solution ((PSS), containing118.0 mM NaCl, 4.7 mM KCl, 1.2 mM KH2PO4, 1.2 mM MgSO4.7H2O, 5.0 mM glucose, 25.0 mM NaHCO3, and 2.5 mM CaCl2.7H2O at 37°C and were gassed with 95% O2 and 5% CO2 for 90 min at a testing tension. KCl (60 mM) was used to depolarize the aortic rings. When the amplitude of the contraction reached a plateau, compounds X1, X2, X3 were added. Cumulative concentration-response curves to all compounds were determined in the absence and presence of endothelium. Using tips of forceps, the endothelium was mechanically removed from some rings by gently rubbing the lumen, if absence of endothelium is needed. Acetylcholine was used to confirm the removal of endothelium from the aortic rings.
# SD rats [2] = conditions: rat, in vivo
# SD rats [3] = assay: Effect on rat hemodynamics (left ventricular pressure, heart rate); conditions: anesthetized SD rats, 3 min after administration
# H9c2 cell = assay: LDH in culture medium under hypoxia/reoxygenation, H9c2 cells; format: cell-based; conditions: 1 × 10^−6 mol/L, vs H/R group (p < 0.01)
# Procedure: as §1
# [4] = target: T1, L-type calcium channels in rat ventricular myocytes (Rattus norvegicus, UniProt P0DP29+P22002); assay: Inhibition of L-type calcium current (patch-clamp); format: cell-based; conditions: 0.1 to 10 μM, rat myocardiocytes
# T1 construct: reduced the amplitude of the L-type calcium current in rat myocardiocytes; endogenous in cells; host or cells: rat ventricular myocytes (single cells)
# rat myocardiocytes = assay: Inhibition of KCl-induced extracellular calcium influx (Fluo-3 fluorescence, confocal microscopy); format: cell-based; conditions: 60 mM KCl; for reduction of Ca^2+ fluorescent intensity, maximum degree: 0.1–10 μM
# Procedure: Fluorescence intensity of Ca^2+ in myocardial cell was determined by laser scanning confocal microscopy (ACAS/ULTIMA312, Meridian Instruments) as previously described. Rat myocardiocytes were grown on 24-mm glass coverslips in 6-well plates in DMEM containing 10% FBS. After 24 h, the cells were incubated with Fluo 3-AM (20 μM) for 60 min in the dark at 37°C. Then, the cells were washed with HBSS three times to remove extracellular Fluo 3-AM. HBSS (HEPES-buffered physiological saline solution) contains 130 mM NaCl, 2.5 mM KCl, 1.2 mM MgCl2, 10 mM HEPES, 10 mM glucose, and 2 mM CaCl2, pH 7.4 (adjusted with NaOH). […] KCl was added into the cultured cells to induce the influx of extracellular Ca^2+ in HBSS and changes in fluorescence were recorded. Myocardiocytes were incubated for 30 min with 0.1, 1, and 10 μM compounds before adding KCl. Effect of compounds on KCl-induced changes in fluorescence was investigated.
SMILES,LDH under H/R (H9c2 cell (Cacnalc−/−)),IC50 [1],maximum inhibition on the vascular ring contraction [1],+LVdp/dtmax (SD rats [2]; 0.25 mg/kg),−LVdp/dtmax (SD rats [2]; 0.25 mg/kg),+LVdp/dtmax (SD rats [2]; 0.5 mg/kg),−LVdp/dtmax (SD rats [2]; 0.5 mg/kg),+LVdp/dtmax (SD rats [2]; 1 mg/kg),−LVdp/dtmax (SD rats [2]; 1 mg/kg),HR (SD rats [3]; 0.25 mg/kg),LVEDP (SD rats [3]; 0.25 mg/kg),LVSP (SD rats [3]; 0.25 mg/kg),HR (SD rats [3]; 0.5 mg/kg),LVEDP (SD rats [3]; 0.5 mg/kg),LVSP (SD rats [3]; 0.5 mg/kg),HR (SD rats [3]; 1 mg/kg),LVEDP (SD rats [3]; 1 mg/kg),LVSP (SD rats [3]; 1 mg/kg),LDH under H/R (H9c2 cell),maximum inhibition rate of L-type calcium current [4],also measured
COc1cccc(C[N+]2(CCCC(=O)c3ccc(F)cc3)CCC(O)(c3ccc(Cl)cc3)CC2)c1 (stereo not shown) [Compound X2],remained unchanged,4220 nM,67.08%,1029.32 ± 144.08,982.13 ± 154.56,1022.14 ± 142.21,984.12 ± 144.32,902.89 ± 138.88,955.23 ± 146.08,365 ± 59,22.12 ± 3.76,145.98 ± 16.42,362 ± 63,22.08 ± 3.44,146.66 ± 18.04,356 ± 53,26.93 ± 3.26,138.94 ± 16.06,decreased,82.8%,"IC50 [4]: 493 nM; reduction of Ca^2+ fluorescent intensity, maximum degree (rat myocardiocytes): 53.6%"
"COC(=O)C1=C(C)NC(C)=C(C(=O)OC)C1c1ccccc1[N+](=O)[O-] [Nif, nifedipine]",,,,,,,,,,372 ± 29,29.33 ± 5.56,137.21 ± 18.26,397 ± 73,33.64 ± 8.12,132.11 ± 11.10,311 ± 54,45.50 ± 6.43,105.00 ± 12.23,,,
"COc1ccc([C@@H]2Sc3ccccc3N(CCN(C)C)C(=O)[C@@H]2OC(C)=O)cc1 [Dil, diltiazem]",,,,,,,,,,322 ± 25,30.21 ± 3.99,138.54 ± 21.35,321 ± 29,33.26 ± 4.26,130.25 ± 17.33,304 ± 47,38.51 ± 7.45,127.55 ± 21.23,,,+LVdp/dtmax (SD rats [3]; 0.25 mg/kg): 1099.22 ± 142.66; −LVdp/dtmax (SD rats [3]; 0.25 mg/kg): 787.25 ± 74.25; +LVdp/dtmax (SD rats [3]; 0.5 mg/kg): 922.11 ± 129.44; −LVdp/dtmax (SD rats [3]; 0.5 mg/kg): 689.76 ± 77.62; +LVdp/dtmax (SD rats [3]; 1 mg/kg): 899.08 ± 128.32; −LVdp/dtmax (SD rats [3]; 1 mg/kg): 622.94 ± 84.42
"COc1ccc(CCN(C)CCCC(C#N)(c2ccc(OC)c(OC)c2)C(C)C)cc1OC (stereo not shown) [Ver, verapamil]",,,,,,,,,,328 ± 28,25.39 ± 7.45,132.24 ± 12.74,302 ± 77,38.21 ± 8.18,112.74 ± 21.08,298 ± 41,42.21 ± 6.23,102.21 ± 14.21,,,"+LVdp/dtmax (SD rats [3]; 0.25 mg/kg): 1022.49 ± 130.44; −LVdp/dtmax (SD rats [3]; 0.25 mg/kg): 932.24 ± 95.54; +LVdp/dtmax (SD rats [3]; 0.5 mg/kg): 925.38 ± 172.37; −LVdp/dtmax (SD rats [3]; 0.5 mg/kg): 699.87 ± 91.11; +LVdp/dtmax (SD rats [3]; 1 mg/kg): 885.32 ± 122.21; −LVdp/dtmax (SD rats [3]; 1 mg/kg): 657.80 ± 85.55; reduction of Ca^2+ fluorescence intensities (rat myocardiocytes; 10 μM, positive control): 86%"
COc1ccccc1C[N+]1(CCCC(=O)c2ccc(F)cc2)CCC(O)(c2ccc(Cl)cc2)CC1 (stereo not shown) [Compound X3],remained unchanged,7420 nM,48.66%,1129.28 ± 162.26,989.92 ± 161.23,1221.12 ± 170.02,1021.23 ± 153.77,1248.36 ± 182.32,1022.15 ± 162.24,358 ± 52,23.86 ± 3.65,142.94 ± 18.08,362 ± 55,24.91 ± 3.07,148.98 ± 20.02,368 ± 54,23.69 ± 3.77,152.88 ± 21.04,decreased,70.2%,"IC50 [4]: 721 nM; reduction of Ca^2+ fluorescent intensity, maximum degree (rat myocardiocytes): 24.53%"
COc1ccc(C[N+]2(CCCC(=O)c3ccc(F)cc3)CCC(O)(c3ccc(Cl)cc3)CC2)cc1 (stereo not shown) [Compound X1],remained unchanged,432 nM,92.5%,1043.01 ± 143.24,899.04 ± 142.24,1011.02 ± 152.04,908.21 ± 151.02,946.02 ± 132.23,884.82 ± 148.09,355 ± 61,20.34 ± 3.06,145.32 ± 20.08,356 ± 55,21.02 ± 3.08,145.38 ± 18.06,342 ± 51,29.66 ± 4.33,132.32 ± 18.66,decreased,97.2%,"IC50 [4]: 472 nM; reduction of Ca^2+ fluorescent intensity, maximum degree (rat myocardiocytes): 76.5%"
